Measurements: US12691112B2, “FGFR tyrosine kinase inhibitors for the treatment of urothelial carcinoma” (Janssen Pharmaceutica NV, priority 2019, dated 2026)
Like-named read-outs stand apart in the source and are kept apart here.

System: subjects with metastatic or surgically unresectable urothelial cancer
Details: all-causality
Procedure: Study treatment was administered on 28-day cycles. […] Patients were randomized 1:1 to 28-day cycles to the following 2 regimens until a regimen was selected for further study: Regimen 1 (10 mg once daily intermittent (7 days on/7 days); Regimen 2 (6 mg once daily continuous). Randomization was stratified according to performance status (0 to 1 vs. 2), hemoglobin value (<10 vs. ≥10 g per dl), FGFR alteration type (mutation vs. fusion), prior treatment status (chemotherapy-resistant vs. chemotherapy naïve), and disease distribution (presence or absence of visceral [liver, lung, bone]metastases). Starting dose selection was based on phase 1 efficacy and tolerability.
Based on interim analysis and pharmacokinetic-pharmacodynamic modeling of serum phosphate levels, starting dose was increased to 8 mg per day continuous (Regimen 3). Thus, after interim analysis, this became a single-arm study. […] Treatment continued until disease progression or unacceptable adverse event(s) per investigator.
Safety was evaluated based on clinical laboratory tests, physical exams, electrocardiograms, and ophthalmology examinations. Adverse events and abnormalities were assessed by investigator and graded per NCI CTCAE v.4.0
Prophylactic measures were taken to minimize risk of common adverse events related to FGFR inhibition. To reduce risk of hyperphosphatemia, a low-phosphate diet was recommended for all patients (600 to 800 mg of dietary phosphate intake per day). To reduce the risk of skin effects, the application of alcohol-free emollient moisturizing cream and avoidance of unnecessary exposure to sunlight, soap, perfumed products, and hot baths was recommended. Patients were asked to keep their fingers and toes clean and nails trimmed to reduce risk of nail effects.
Additional ophthalmology examinations were performed if clinically indicated.

COc1cc(OC)cc(N(CCNC(C)C)c2ccc3ncc(-c4cnn(C)c4)nc3c2)c1 [erdafitinib, N-(3,5-dimethoxy-phenyl)-N′-(1-methylethyl)-N-[3-(1-methyl-1H-pyrazol-4-yl)quinoxalin-6-yl]ethane-1,2-diamine]
Constipation, grade ≥ 3 (8 mg continuous, n = 99): 1 no. | Decreased appetite, any grade (8 mg continuous, n = 99): 38 no. | Decreased appetite, grade 1 (8 mg continuous, n = 99): 18 no. | Decreased appetite, grade 2 (8 mg continuous, n = 99): 20 no. | Decreased appetite, grade ≥ 3 (8 mg continuous, n = 99): 0 no. | Diarrhea, any grade (8 mg continuous, n = 99): 50 no. | Diarrhea, grade 1 (8 mg continuous, n = 99): 31 no. | Diarrhea, grade 2 (8 mg continuous, n = 99): 15 no. | Diarrhea, grade ≥ 3 (8 mg continuous, n = 99): 4 no. | Dry eye, any grade (8 mg continuous, n = 99): 19 no. | Dry eye, grade 1 (8 mg continuous, n = 99): 14 no. | Dry eye, grade 2 (8 mg continuous, n = 99): 4 no. | Dry eye, grade ≥ 3 (8 mg continuous, n = 99): 1 no. | Dry mouth, any grade (8 mg continuous, n = 99): 45 no. | Dry mouth, grade 1 (8 mg continuous, n = 99): 34 no. | Dry mouth, grade 2 (8 mg continuous, n = 99): 11 no. | Dry mouth, grade ≥ 3 (8 mg continuous, n = 99): 0 no. | Dry skin, any grade (8 mg continuous, n = 99): 32 no. | Dry skin, grade 1 (8 mg continuous, n = 99): 24 no. | Dry skin, grade 2 (8 mg continuous, n = 99): 8 no. | Dry skin, grade ≥ 3 (8 mg continuous, n = 99): 0 no. | Dysgeusia, any grade (8 mg continuous, n = 99): 37 no. | Dysgeusia, grade 1 (8 mg continuous, n = 99): 23 no. | Dysgeusia, grade 2 (8 mg continuous, n = 99): 13 no. | Dysgeusia, grade ≥ 3 (8 mg continuous, n = 99): 1 no. | Dyspepsia, any grade (8 mg continuous, n = 99): 11 no. | Dyspepsia, grade 1 (8 mg continuous, n = 99): 10 no. | Dyspepsia, grade 2 (8 mg continuous, n = 99): 1 no. | Dyspepsia, grade ≥ 3 (8 mg continuous, n = 99): 0 no. | Dyspnea, any grade (8 mg continuous, n = 99): 8 no. | Dyspnea, grade 1 (8 mg continuous, n = 99): 4 no. | Dyspnea, grade 2 (8 mg continuous, n = 99): 2 no. | Dyspnea, grade ≥ 3 (8 mg continuous, n = 99): 2 no. | Fatigue, any grade (8 mg continuous, n = 99): 32 no. | Fatigue, grade 1 (8 mg continuous, n = 99): 12 no. | Fatigue, grade 2 (8 mg continuous, n = 99): 18 no. | Fatigue, grade ≥ 3 (8 mg continuous, n = 99): 2 no. | Hand-foot syndrome, any grade (8 mg continuous, n = 99): 23 no. | Hand-foot syndrome, grade 1 (8 mg continuous, n = 99): 6 no. | Hand-foot syndrome, grade 2 (8 mg continuous, n = 99): 12 no. | Hand-foot syndrome, grade ≥ 3 (8 mg continuous, n = 99): 5 no. | Hematuria, any grade (8 mg continuous, n = 99): 10 no. | Hematuria, grade 1 (8 mg continuous, n = 99): 7 no. | Hematuria, grade 2 (8 mg continuous, n = 99): 1 no. | Hematuria, grade ≥ 3 (8 mg continuous, n = 99): 2 no. | Hyperphosphatemia, any grade (8 mg continuous, n = 99): 76 no. | Hyperphosphatemia, grade 1 (8 mg continuous, n = 99): 53 no. | Hyperphosphatemia, grade 2 (8 mg continuous, n = 99): 21 no. | Hyperphosphatemia, grade ≥ 3 (8 mg continuous, n = 99): 2 no. | Hypomagnesemia, any grade (8 mg continuous, n = 99): 10 no. | Hypomagnesemia, grade 1 (8 mg continuous, n = 99): 9 no. | Hypomagnesemia, grade 2 (8 mg continuous, n = 99): 1 no. | Hypomagnesemia, grade ≥ 3 (8 mg continuous, n = 99): 0 no. | Hyponatremia, any grade (8 mg continuous, n = 99): 12 no. | Hyponatremia, grade 1 (8 mg continuous, n = 99): 1 no. | Hyponatremia, grade 2 (8 mg continuous, n = 99): 0 no. | Hyponatremia, grade ≥ 3 (8 mg continuous, n = 99): 11 no. | Insomnia, any grade (8 mg continuous, n = 99): 7 no. | Insomnia, grade 1 (8 mg continuous, n = 99): 4 no. | Insomnia, grade 2 (8 mg continuous, n = 99): 3 no. | Insomnia, grade ≥ 3 (8 mg continuous, n = 99): 0 no. | Lacrimation increased, any grade (8 mg continuous, n = 99): 11 no. | Lacrimation increased, grade 1 (8 mg continuous, n = 99): 8 no. | Lacrimation increased, grade 2 (8 mg continuous, n = 99): 3 no. | Lacrimation increased, grade ≥ 3 (8 mg continuous, n = 99): 0 no. | Nail dystrophy, any grade (8 mg continuous, n = 99): 16 no. | Nail dystrophy, grade 1 (8 mg continuous, n = 99): 5 no. | Nail dystrophy, grade 2 (8 mg continuous, n = 99): 5 no. | Nail dystrophy, grade ≥ 3 (8 mg continuous, n = 99): 6 no. | Nausea, any grade (8 mg continuous, n = 99): 20 no. | Nausea, grade 1 (8 mg continuous, n = 99): 13 no. | Nausea, grade 2 (8 mg continuous, n = 99): 6 no. | Nausea, grade ≥ 3 (8 mg continuous, n = 99): 1 no. | Onycholysis, any grade (8 mg continuous, n = 99): 18 no. | Onycholysis, grade 1 (8 mg continuous, n = 99): 6 no. | Onycholysis, grade 2 (8 mg continuous, n = 99): 10 no. | Onycholysis, grade ≥ 3 (8 mg continuous, n = 99): 2 no. | Onychomadesis, any grade (8 mg continuous, n = 99): 7 no. | Onychomadesis, grade 1 (8 mg continuous, n = 99): 2 no. | Onychomadesis, grade 2 (8 mg continuous, n = 99): 5 no. | Onychomadesis, grade ≥ 3 (8 mg continuous, n = 99): 0 no. | Oropharyngeal pain, any grade (8 mg continuous, n = 99): 10 no. | Oropharyngeal pain, grade 1 (8 mg continuous, n = 99): 8 no. | Oropharyngeal pain, grade 2 (8 mg continuous, n = 99): 1 no. | Oropharyngeal pain, grade ≥ 3 (8 mg continuous, n = 99): 1 no. | Pain in extremity, any grade (8 mg continuous, n = 99): 12 no. | Pain in extremity, grade 1 (8 mg continuous, n = 99): 10 no. | Pain in extremity, grade 2 (8 mg continuous, n = 99): 2 no. | Pain in extremity, grade ≥ 3 (8 mg continuous, n = 99): 0 no. | Paronychia, any grade (8 mg continuous, n = 99): 17 no. | Paronychia, grade 1 (8 mg continuous, n = 99): 3 no. | Paronychia, grade 2 (8 mg continuous, n = 99): 11 no. | Paronychia, grade ≥ 3 (8 mg continuous, n = 99): 3 no. | Peripheral edema, any grade (8 mg continuous, n = 99): 9 no. | Peripheral edema, grade 1 (8 mg continuous, n = 99): 5 no. | Peripheral edema, grade 2 (8 mg continuous, n = 99): 3 no. | Peripheral edema, grade ≥ 3 (8 mg continuous, n = 99): 1 no. | Pyrexia, any grade (8 mg continuous, n = 99): 13 no. | Pyrexia, grade 1 (8 mg continuous, n = 99): 8 no. | Pyrexia, grade 2 (8 mg continuous, n = 99): 5 no. | Pyrexia, grade ≥ 3 (8 mg continuous, n = 99): 0 no. | Retinal detachment, any grade (8 mg continuous, n = 99): 5 no. | Retinal detachment, grade 1 (8 mg continuous, n = 99): 3 no. | Retinal detachment, grade 2 (8 mg continuous, n = 99): 2 no. | Retinal detachment, grade ≥ 3 (8 mg continuous, n = 99): 0 no. | Stomatitis, any grade (8 mg continuous, n = 99): 57 no. | Stomatitis, grade 1 (8 mg continuous, n = 99): 21 no. | Stomatitis, grade 2 (8 mg continuous, n = 99): 26 no. | Stomatitis, grade ≥ 3 (8 mg continuous, n = 99): 10 no. | Urinary tract infection, any grade (8 mg continuous, n = 99): 16 no. | Urinary tract infection, grade 1 (8 mg continuous, n = 99): 0 no. | Urinary tract infection, grade 2 (8 mg continuous, n = 99): 11 no. | Urinary tract infection, grade ≥ 3 (8 mg continuous, n = 99): 5 no. | Vision blurred, any grade (8 mg continuous, n = 99): 17 no. | Vision blurred, grade 1 (8 mg continuous, n = 99): 10 no. | Vision blurred, grade 2 (8 mg continuous, n = 99): 7 no. | Vision blurred, grade ≥ 3 (8 mg continuous, n = 99): 0 no. | Vomiting, any grade (8 mg continuous, n = 99): 13 no. | Vomiting, grade 1 (8 mg continuous, n = 99): 10 no. | Vomiting, grade 2 (8 mg continuous, n = 99): 1 no. | Vomiting, grade ≥ 3 (8 mg continuous, n = 99): 2 no. | Weight decreased, any grade (8 mg continuous, n = 99): 15 no. | Weight decreased, grade 1 (8 mg continuous, n = 99): 7 no. | Weight decreased, grade 2 (8 mg continuous, n = 99): 8 no. | Weight decreased, grade ≥ 3 (8 mg continuous, n = 99): 0 no. | Abdominal pain, any grade (10 mg intermittent, n = 33): 5 no. | Abdominal pain, grade 1 (10 mg intermittent, n = 33): 2 no. | Abdominal pain, grade 2 (10 mg intermittent, n = 33): 2 no. | Abdominal pain, grade ≥ 3 (10 mg intermittent, n = 33): 1 no. | Alanine aminotransferase increased, any grade (10 mg intermittent, n = 33): 1 no. | Alanine aminotransferase increased, grade 1 (10 mg intermittent, n = 33): 0 no. | Alanine aminotransferase increased, grade 2 (10 mg intermittent, n = 33): 1 no. | Alanine aminotransferase increased, grade ≥ 3 (10 mg intermittent, n = 33): 0 no. | Alopecia, any grade (10 mg intermittent, n = 33): 4 no. | Alopecia, grade 1 (10 mg intermittent, n = 33): 2 no. | Alopecia, grade 2 (10 mg intermittent, n = 33): 2 no. | Alopecia, grade ≥ 3 (10 mg intermittent, n = 33): 0 no. | Anemia, any grade (10 mg intermittent, n = 33): 8 no. | Anemia, grade 1 (10 mg intermittent, n = 33): 1 no. | Anemia, grade 2 (10 mg intermittent, n = 33): 1 no. | Anemia, grade ≥ 3 (10 mg intermittent, n = 33): 6 no. | Arthralgia, any grade (10 mg intermittent, n = 33): 7 no. | Arthralgia, grade 1 (10 mg intermittent, n = 33): 3 no. | Arthralgia, grade 2 (10 mg intermittent, n = 33): 2 no. | Arthralgia, grade ≥ 3 (10 mg intermittent, n = 33): 2 no. | Aspartate aminotransferase increased, any grade (10 mg intermittent, n = 33): 2 no. | Aspartate aminotransferase increased, grade 1 (10 mg intermittent, n = 33): 2 no. | Aspartate aminotransferase increased, grade 2 (10 mg intermittent, n = 33): 0 no. | Aspartate aminotransferase increased, grade ≥ 3 (10 mg intermittent, n = 33): 0 no. | Asthenia, any grade (10 mg intermittent, n = 33): 10 no. | Asthenia, grade 1 (10 mg intermittent, n = 33): 5 no. | Asthenia, grade 2 (10 mg intermittent, n = 33): 3 no. | Asthenia, grade ≥ 3 (10 mg intermittent, n = 33): 2 no. | Back pain, any grade (10 mg intermittent, n = 33): 5 no. | Back pain, grade 1 (10 mg intermittent, n = 33): 1 no. | Back pain, grade 2 (10 mg intermittent, n = 33): 1 no. | Back pain, grade ≥ 3 (10 mg intermittent, n = 33): 3 no. | Blood creatinine increased, any grade (10 mg intermittent, n = 33): 4 no. | Blood creatinine increased, grade 1 (10 mg intermittent, n = 33): 3 no. | Blood creatinine increased, grade 2 (10 mg intermittent, n = 33): 1 no. | Blood creatinine increased, grade ≥ 3 (10 mg intermittent, n = 33): 0 no. | Conjunctivitis, any grade (10 mg intermittent, n = 33): 4 no. | Conjunctivitis, grade 1 (10 mg intermittent, n = 33): 3 no. | Conjunctivitis, grade 2 (10 mg intermittent, n = 33): 1 no. | Conjunctivitis, grade ≥ 3 (10 mg intermittent, n = 33): 0 no. | Constipation, any grade (10 mg intermittent, n = 33): 14 no. | Constipation, grade 1 (10 mg intermittent, n = 33): 8 no. | Constipation, grade 2 (10 mg intermittent, n = 33): 6 no. | Constipation, grade ≥ 3 (10 mg intermittent, n = 33): 0 no. | Decreased appetite, any grade (10 mg intermittent, n = 33): 11 no. | Decreased appetite, grade 1 (10 mg intermittent, n = 33): 4 no. | Decreased appetite, grade 2 (10 mg intermittent, n = 33): 6 no.
